The values that follow come from PubChem BioAssay (NCI).

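Values below derive from 48-hour exposures of cells grown in 96-well plates, with endpoints linearly interpolated between the two concentrations bracketing the appropriate inhibition level. Definition used: TGI = concentration required for complete inhibition of growth.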 Where only a bound is given, the exact number is not on record here.

Among the test systems are MDA-N; 786-0 renal; RXF-631 renal.
Experiment in all cases: NCI-60 cell line screen, 48 h

On to `CC(CO)(CO)Nc1ncnc2ccccc12`, for which the TGI with MDA-N and in the assay on 786-0 renal was greater than 100 µM each time.

Regarding `Nc1nnc(N)n1NC(=O)C(=O)Nc1ccc([N+](=O)[O-])cc1`, in the assay with RXF-631 renal, the TGI is greater than 100 µM.

With `COc1cc(O)c2c(c1)C(=O)c1cc(C)cc(O)c1C2=O`, in the assay on RXF-631 renal, the TGI is greater than 100 µM.
